Data from article PMC5062114, “Dual-targeting anti-angiogenic cyclic peptides as potential drug leads for cancer therapy” (Scientific Reports, 2016).
Read-outs that look alike come from different tables or passages of the source. Bridge positions count the residues as written; N and C are the ends. Square brackets hold non-standard residues; d marks the D form. Peptide text beside a SMILES is read from it.

How the values were obtained:
[1] = system: HUVEC migration; assay: VEGF-mediated HUVEC transwell migration assay; type: cell-based, human
Experimental: Figure 5 Cell migration on VEGF-mediated HUVECs. The percentage of HUVEC migration was analyzed using Prism Version 6 (GraphPad). (A–T) VEGF was used as a positive control with 100% HUVEC migration. All peptides were tested at concentrations ranging from 0.001–50 μM except for cilengitide and octreotide, which were tested in 10-fold dilutions from 10 μM. Peptides were added in the presence of 0.3 nM VEGF (bottom chamber). Data are shown as mean ± SD (n ≥ 3). Data were normalized to the mean VEGF control. P-values are represented as follows: ****p ≤ 0.0001, ***p ≤ 0.001, **p ≤ 0.01, and *p ≤ 0.05.
A cell migration assay was performed as described by Chan et al.[45] HUVECs between passages three and ten were used. Briefly, initial peptide concentrations of 10–500 μM were prepared for all peptides except SFTI-SST-01, MCo-SST-01, SFTI-SST-02, MCo-SST-02, SFTI-PEDF, MCo-PEDF (0.01–500 μM), cilengitide, octreotide, and MCoAA-02 (1 × 10^−7 M–100 μM). To the apical well, 100 μL of 1 × 10^5 cells/well were seeded and 600 μL of medium supplemented with or without 0.3 nM VEGF (Sigma, catalogue no. V7259) was added to the basolateral well. The well containing cells with 0.1% FBS/EGM-2 basal medium was used as a negative control, and the well containing cells with 0.3 nM VEGF was used as a positive control. All peptides were stimulated with 0.3 nM VEGF. Experiments were done in triplicate. […]

[2] = system: HT-29; assay: cells
Experimental: (§1) HUVECs (human umbilical vein endothelial cells) were cultured in EGM™-2 BulletKit™ supplemented with SingleQuots™ (supplements: growth factors, cytokines, antibiotics; Lonza) and 10% FBS (catalog no. FFBS-500; Scientifix). Both HT-29 and MCF-7 cells were cultured in 10% FBS/DMEM (Dulbecco’s Modified Eagle Medium) with 1% penicillin–streptomycin (5000 U/mL; Life Technologies), whereas PC3 cells (prostate cancer cells) were cultured in 10% FBS/RPMI (Roswell Park Memorial Institute) 1640 with 1% penicillin–streptomycin (5000 U/mL; Life Technologies). All cells were maintained at 37 °C in 5% CO2.
(§2) Cell cytotoxicity and proliferation assays were performed using similar methods to those described by Chan et al.[45]. All cells were maintained using the media conditions described above, and passages two to ten were used for all cell lines. For all cell lines, 5.0 × 10^3 cells/well (100 μL) and 1.5 × 10^3 cells/well (100 μL) were used for cell cytotoxicity and cell proliferation assays, respectively. All peptides (10 μL, at final concentrations ranging from 0.05–100 μM) and drugs, which included cilengitide, octreotide and sunitinib (at final concentrations ranging from 0.00001–100 μM), were used in both assays. Triton X-100 (0.1% (v/v); 10 μL) was used as a positive control. Cells were treated with fresh media the day after plating, before the addition of peptides, followed by a subsequent 2-h and 48-h incubation for cell cytotoxicity and cell proliferation, respectively. After different incubation periods, 3-(4, 5-dimethylthiazolyl-2)-2,5-diphenyltetrazolium bromide (MTT) (10 μL; 5 mg/mL in PBS) was added, and cells were incubated for a further 4 h. The supernatant was then removed and 100 μL DMSO added to solubilize formazan salts. Experiments were performed in triplicate. Cell numbers were recorded at 600 nm. All data represent average mean ± SD.

[3] = system: HUVEC; assay: cells
Experimental: as §1, §2

[4] = system: PC3; assay: cells
Experimental: as §1, §2

[5] = system: MCF-7; assay: cells
Experimental: as §1, §2

[6] = Peptide stability assay in human serum; settings: for stability in human serum over 24 h: RP-HPLC peak height at 215 nm
Experimental: Figure 6 Chorionallantoic membrane and stability assays. (A) Comparison of blood vessel count of the linear and grafted peptides. Error bars indicate ± SD (n ≥ 6). […] A one-way ANOVA with Dunnett’s post-test using a multiple comparison test was used for statistical analysis. […] All peptides were compared to 0.3 nM VEGF (highlighted in grey), which is represented as 100% blood vessel growth. […] VEGF was used as the positive control, and octreotide and cilengitide as the negative controls. All images were taken with an original magnification of x16 on an Olympus SZX12 dissecting microscope with a light box. DP capture and DP manager software packages were used during image acquisition. (C) This graph illustrates the percentage of peptide remaining over 24 h in the serum stability assay. […] All data are represented as mean ± SD and were recorded in triplicate. Peptides labeled with an asterisk (*) were tested using the same method except with an additional step – dissolving the centrifuged pellet with 8 M guanidinium chloride before RP-HPLC analysis.
The overall procedures used to assess peptide stability are based on those described previously by Chan et al.[18] and Ji et al.[19]. A peptide concentration of 300 μM was used, and time points taken at 0, 2, 4, 8, 16, and 24 h. The stability of sunitinib was also examined using this method, except an additional step was added after the final centrifugation step, whereby the pellet was dissolved in 8 M guanidine hydrochloride (300 μL) prior to analysis with RP-HPLC; this additional step was adapted from Ji et al.[19]. Supernantants were analyzed on an Agilent RP-HPLC using a linear 1%/min gradient of 0–50% solvent B with a 0.3 mL/min Phenomenex column. Peak height was used for integration of data at 215 nm and each experiment was performed in triplicate.

[7] = human serum, 300 μM, 24 h, triplicate
[8] = read-out: IC50 ± S.D., 48 hours, HT-29, cell proliferation inhibition, MTT, 48-h incubation, 1.5 × 10^3 cells/well, triplicate, mean ± SD
[9] = read-out: IC50 ± S.D., 48 hours, HUVEC, cell proliferation inhibition, MTT, 48-h incubation, 1.5 × 10^3 cells/well, triplicate, mean ± SD
[10] = read-out: IC50 ± S.D., 48 hours, PC3, cell proliferation inhibition, MTT, 48-h incubation, 1.5 × 10^3 cells/well, triplicate, mean ± SD
[11] = read-out: IC50 ± S.D., 48 hours, MCF-7, cell proliferation inhibition, MTT, 48-h incubation, 1.5 × 10^3 cells/well, triplicate, mean ± SD

With `CCN(CC)CCNC(=O)c1c(C)[nH]c(/C=C2\C(=O)Nc3ccc(F)cc32)c1C` [sunitinib, Sunitinib malate, reference compound] the inhibition at 10 µM ([1]; Homo sapiens, HUVEC, 10 μM, 0.3 nM VEGF) was 100%, the IC50 ([2]; Homo sapiens, HT-29, 48 h, read-out: IC50 ± S.D., 48 hours, HT-29) was 1.43 ± 0.24 µM and the IC50 ([3]; Homo sapiens, HUVEC, 48 h, read-out: IC50 ± S.D., 48 hours, HUVEC) was 19.1 ± 0.46 µM. The IC50 ([4]; Homo sapiens, PC-3, 48 h, read-out: IC50 ± S.D., 48 hours, PC3) was 16.2 ± 0.26 µM and the IC50 ([5]; Homo sapiens, MCF7, 48 h, read-out: IC50 ± S.D., 48 hours, MCF-7) was 17.07 ± 0.11 µM.
With `CC[C@H](C)[C@@H]1NC(=O)[C@@H]2CSSC[C@@H]3NC(=O)CNC(=O)[C@H](Cc4ccccc4)NC(=O)[C@@H]4CCCN4C(=O)[C@H](CCC(N)=O)NC(=O)[C@H](CC(N)=O)NC(=O)[C@H](CC(C)C)NC(=O)[C@H](Cc4c[nH]cn4)NC(=O)[C@H](Cc4ccc(O)cc4)NC(=O)CNC(=O)[C@@H]4CSSC[C@H](NC(=O)[C@H](CC(=O)O)NC(=O)[C@H](CO)NC(=O)[C@H](CC(=O)O)NC(=O)[C@H](CCCNC(=N)N)NC(=O)[C@H](CCCNC(=N)N)NC(=O)[C@H](CSSC[C@H](NC1=O)C(=O)N[C@@H](CCCNC(=N)N)C(=O)N[C@@H](Cc1ccc(O)cc1)C(=O)N[C@H](Cc1c[nH]c5ccccc15)C(=O)N[C@@H](CCCCN)C(=O)N[C@@H](C(C)C)C(=O)N4)NC(=O)[C@H](CCCCN)NC(=O)[C@H](CCCCN)NC(=O)[C@H](CC(C)C)NC(=O)[C@H]([C@@H](C)CC)NC(=O)[C@H](CCCCN)NC(=O)[C@@H]1CCCN1C3=O)C(=O)N1CCC[C@H]1C(=O)NCC(=O)N[C@@H](C)C(=O)N2` [MCoAA-02] (cyclo(ACICRY[dW]KVCGYHLNQPFGCPKILKKCRRDSDCPG); disulfide 2-20, 4-27, 10-33) the “stability in human serum over 24 h” value [6, 7] was “stable”, the “percentage remaining in human serum at 24 h, excess over sunitinib” value ([6]; human serum, 300 μM, 24 h, pellet dissolved in 8 M guanidine hydrochloride, RP-HPLC 215 nm, triplicate) was “approximately 20%” and the remaining at 24 h, 300 μM ([6]; human, serum) was greater than 75%. For the same compound, the IC50 [2, 8] was 19.75 ± 0.07 µM, the IC50 [3, 9] was 27.06 ± 0.06 µM and the IC50 [4, 10] was 35.44 ± 0.13 µM. It also gave an IC50 [5, 11] greater than 100 µM.
Work on `CC[C@H](C)[C@@H]1NC(=O)[C@@H]2CSSC[C@@H]3NC(=O)[C@H](C(C)C)NC(=O)CNC(=O)CNC(=O)[C@H](CC(=O)O)NC(=O)[C@H](CO)NC(=O)CNC(=O)[C@H](CO)NC(=O)CNC(=O)[C@@H]4CSSC[C@H](NC(=O)[C@H](CC(=O)O)NC(=O)[C@H](CO)NC(=O)[C@H](CC(=O)O)NC(=O)[C@H](CCCNC(=N)N)NC(=O)[C@H](CCCNC(=N)N)NC(=O)[C@H](CSSC[C@H](NC1=O)C(=O)N[C@@H](CCCNC(=N)N)C(=O)N[C@@H](Cc1ccc(O)cc1)C(=O)N[C@H](Cc1c[nH]c5ccccc15)C(=O)N[C@@H](CCCCN)C(=O)N[C@@H](C(C)C)C(=O)N4)NC(=O)[C@H](CCCCN)NC(=O)[C@H](CCCCN)NC(=O)[C@H](CC(C)C)NC(=O)[C@H]([C@@H](C)CC)NC(=O)[C@H](CCCCN)NC(=O)[C@@H]1CCCN1C3=O)C(=O)N1CCC[C@H]1C(=O)NCC(=O)N[C@@H](C)C(=O)N2` [MCo-SST-01] (cyclo(ACICRY[dW]KVCGSGSDGGVCPKILKKCRRDSDCPG); disulfide 2-19, 4-26, 10-32 (inferred); ring closure inferred) yielded an IC50 ([1]; transwell, 0.3 nM VEGF in bottom chamber, normalized to VEGF control = 100% migration, n ≥ 3, read-out: concentration giving 50% inhibition of HUVEC migration) of 0.005 µM, an IC50 [2, 8] of 74.13 ± 0.07 µM and an IC50 [3, 9] of 17.12 ± 0.05 µM. The IC50 [4, 10] was 85.44 ± 0.08 µM and the IC50 [5, 11] was greater than 100 µM.
In the case of `CC(C)[C@H](NC(=O)[C@H](CCCCN)NC(=O)[C@@H](Cc1c[nH]c2ccccc12)NC(=O)[C@@H](N)Cc1ccc(O)cc1)C(=O)O` [SST-01, reference compound] (H-Y[dW]KV-OH; N-terminus assumed), the “stability in human serum over 24 h” value [6, 7] is reported as “more stable than PEDF”, the IC50 ([2]; 4 h) is reported as greater than 100 µM and the IC50 ([3]; 4 h) is reported as 57.54 ± 0.04 µM. For the same compound, the IC50 ([4]; 4 h) was greater than 100 µM and the IC50 ([5]; 4 h) was greater than 100 µM.
